The target in one series is VPS29-VPS35 heterodimer (Homo sapiens, UniProt Q96QK1+Q9UBQ0). Description: STD-NMR and WaterLogsy-NMR ligand-based binding experiments. The following applies: STD- and WL-NMR competition experiments could not be performed. How it is done:
We used a ligand-based NMR approach to localize the binding between compound 2a and the VPS29-VPS35 heterodimer. These techniques provide binding information without requiring any isotopic labeling of the proteins. Particularly, Saturation Transfer Difference NMR (STD-NMR)[32] and WaterLogsy-NMR (WL-NMR)[33] experiments were acquired in buffer solutions containing a large excess of compound 2a (500μM) with respect to VPS29-VPS35 (10 μM). Both STD-NMR and WL-NMR focus on the NMR signals of the ligand and utilize the magnetization transfer by the Nuclear Overhauser Effect (NOE) between protein and ligand. STD-NMR experiments are carried out by subtraction of a 1D ^1H spectrum where the protein protons are selectively irradiated (on-resonance spectrum) from a spectrum in which the protein is not saturated (off-resonance spectrum).
WL-NMR entails magnetization transfer to the ligand from either bulk water via a macromolecule, and/or the exchangeable protons and the water molecules present in the binding site. Positive peaks for proton resonances of the ligand in the WL-NMR spectrum are observed for binders in presence of the protein. […] As negative control, STD-NMR and WL-NMR experiments were performed for compound 2a in absence of the heterodimer. The absence of proton signals in the aromatic zone and the presence of negative signals in STD-NMR (Fig. 2k) and WL-NMR (Fig. 2l) spectra, respectively, confirms the binding between compound 2a and the VPS29-VPS35 heterodimer. Unfortunately, STD- and WL-NMR competition experiments between 2a and R55/1 could not be performed since the latter compound was not stable in our experimental conditions.
NMR spectra were acquired at 298K on a Bruker Avance NEO 700 MHz spectrometer equipped with a Z-gradient cryoprobe. The spectra were processed with the Bruker TOPSPIN 4.0.5 software packages. […] 1D ^1H spectra were recorded using a 1 s presaturation pulse with a B1 power of 200 Hz. […]

Series [1] deals with T1, VPS35 (Mus musculus, UniProt Q9EQH3+Q9QZ88). The following applies: Neuro2a cells, 10 µM, 48 h, WB.
Experimental: Protein extracts were collected, separated by SDS-PAGE and immunoblotted for VPS35 and the housekeeping gene β-Actin.
Neuro2a cells (ATCC® CCL-131™) were seeded in Dulbecco’s modified Eagle’s media (DMEM, Gibco) supplemented with FBS 10% (Gibco), L-glutamine (Gibco) 2 mM and penicillin/streptomycin 1% (Gibco). Depending on the experimental setting, we used 6-well, 12-well or 96-well dishes. Neuro2a were grow at 37 °C in a humidified 5% CO2 atmosphere. All experiments were carried out at least in triplicate. Compounds and transfections were done on cells showing 60–70% of confluence. Compounds were usually kept on cells for 48 h; Bortezomib (BTZ) was used at 10 nM for 6 h to inhibit proteasome.
Protein lysates from cells cultures were collected from plates receiving PBS 1× washing and subsequently the lysis buffer followed by sonication. Protein concentrations were measured by BCA protein assay kit (Thermofisher) according to the manufacturer’s recommendations. Ten µg of protein extract was loaded on 10% Mini-PROTEAN TGX Stain-Free precast gels for PAGE (Bio-Rad). Gel electrophoresis was performed at 100 V for 2 h. Gels were transferred on Immobilon®-P PVDF membrane according to the manufacturer’s instructions (Millipore). Blots were blocked in 5% BSA in Tris buffered saline plus 0.1% Tween-20 (TBS-T) for 1 h before receiving primary antibodies: goat α-VPS35 1:800 (ab10099, Abcam); rabbit α-VPS26 1:1000 (ab23892 Abcam), rabbit α-VPS26b 1:1000 (15915-1-AP, ProteinTech); rabbit α-VPS29 1:1000 (ab236796 Abcam); mouse α-βActin 1:25000 (Sigma–Aldrich); mouse α-Golgin97 1:1000 (Invitrogen); mouse α-Ubiquitin 1:500 (Merk); rabbit α-CD14 1:1000 (Bioss Inc); mouse α-Tubulin 1:5000 (Immunological Sciences MAB-80143) overnight at 4 °C on shaker. Following several washes with TBS-T, blots were incubated in appropriate HRP-labeled secondary antibodies (Bio-Rad) for 1 h at room temperature. […] Quantifications were done using the Image Lab 6.0.1 software (Bio-Rad).
Series [2] has as its system Vps35, Vps26, and Vps29 mRNAs. Also on record: method as in PMID 24747528. The following applies: cited from earlier work.
For series [3], the system named is VPS35-VPS29 interaction / retromer. More on the design: method as in PMID 24747528. The following applies: cited from earlier work.
A further series has as its system APP processing. Also on record: method as in PMID 24747528. The following applies: neurons carrying pathogenic APP mutations; cited from earlier work.
Series [4] addresses T1, VPS35. The series is described as follows: Western blot for VPS35 in spinal cord extracts of treated C57BL6J mice. In kind it is in vivo. More on the design: from tissue; host or cells: mouse (lumbar) spinal cord, motor neurons. The following applies: 10 mg/Kg intraperitoneally daily, 1 week. How it is done:
Compounds 2a, 4a, and standard R55/1 (10 mg/Kg) were intraperitoneally injected in C57BL6J mice daily. After 1 week, mice were sacrificed, saline perfused to avoid CNS contamination by compounds in blood circulation, and SC protein extracts were assayed by WB. […] Therefore, phenyl-1,3-bis-guanylhydrazone 2a was selected as an early lead.
(In general: Immunoblotting shows a protein as a band on a membrane.)

`N=C(N)SCc1ccc(CSC(=N)N)s1` [R55/1]: the “stability in NMR experimental conditions” value at VPS29-VPS35 heterodimer was “not stable”. At VPS35 [1], the VPS35 levels result is reported as “increased”. For the same molecule, the “transcription levels of CRC genes” value in series [2] is “did not influence”. Further, in series [3], the VPS35-VPS29 interaction entry is on record as “stabilizes the VPS35-VPS29 interaction”; the “VPS35 and VPS26 levels in cultured cells” value was “increases VPS35 and VPS26 levels”; the “increase of VPS35 levels in cells” value is reported as around 60%. Moreover, in the series with APP processing, the “accumulation of amyloid-β peptides and APP processing” value is recorded as “reduced the accumulation of amyloid-β (Aβ) peptides as well as APP processing”.
With `NC(N)=N/N=C/c1ccc(/C=N/N=C(N)N)s1` [compound 3a], the VPS35 levels entry at VPS35 [1] was “increased VPS35 levels”.
In the case of `N=C(N)SCc1cccc(CSC(=N)N)c1` [compound 4a], the VPS35 levels result on VPS35 [1] is “increased VPS35 levels”. In addition, at VPS35 [4], the “VPS35 levels in SC extracts” value is listed as “slightly, but not significantly, increased”.

Source of the values: publication PMC7395176, “Retromer stabilization results in neuroprotection in a model of Amyotrophic Lateral Sclerosis” (Nature Communications, 2020).
